The values below come from US11155539B2, “4-pyridinylmethyl-morpholine derivatives and the use thereof as medicament” (Boehringer Ingelheim International GmbH, priority 2018, dated 2021).

Usually IC50 stands for the point on the concentration scale where inhibition reaches its midpoint.

Structures are written as SMILES.

The target in this assay is T1, NMDA NR1/NR2B receptor (Homo sapiens, UniProt Q05586+Q13224).
T1 construct: host or cells: HEK293, tetracycline-inducible expression
T1 sequence (Q13224 27-1484, other chains not shown): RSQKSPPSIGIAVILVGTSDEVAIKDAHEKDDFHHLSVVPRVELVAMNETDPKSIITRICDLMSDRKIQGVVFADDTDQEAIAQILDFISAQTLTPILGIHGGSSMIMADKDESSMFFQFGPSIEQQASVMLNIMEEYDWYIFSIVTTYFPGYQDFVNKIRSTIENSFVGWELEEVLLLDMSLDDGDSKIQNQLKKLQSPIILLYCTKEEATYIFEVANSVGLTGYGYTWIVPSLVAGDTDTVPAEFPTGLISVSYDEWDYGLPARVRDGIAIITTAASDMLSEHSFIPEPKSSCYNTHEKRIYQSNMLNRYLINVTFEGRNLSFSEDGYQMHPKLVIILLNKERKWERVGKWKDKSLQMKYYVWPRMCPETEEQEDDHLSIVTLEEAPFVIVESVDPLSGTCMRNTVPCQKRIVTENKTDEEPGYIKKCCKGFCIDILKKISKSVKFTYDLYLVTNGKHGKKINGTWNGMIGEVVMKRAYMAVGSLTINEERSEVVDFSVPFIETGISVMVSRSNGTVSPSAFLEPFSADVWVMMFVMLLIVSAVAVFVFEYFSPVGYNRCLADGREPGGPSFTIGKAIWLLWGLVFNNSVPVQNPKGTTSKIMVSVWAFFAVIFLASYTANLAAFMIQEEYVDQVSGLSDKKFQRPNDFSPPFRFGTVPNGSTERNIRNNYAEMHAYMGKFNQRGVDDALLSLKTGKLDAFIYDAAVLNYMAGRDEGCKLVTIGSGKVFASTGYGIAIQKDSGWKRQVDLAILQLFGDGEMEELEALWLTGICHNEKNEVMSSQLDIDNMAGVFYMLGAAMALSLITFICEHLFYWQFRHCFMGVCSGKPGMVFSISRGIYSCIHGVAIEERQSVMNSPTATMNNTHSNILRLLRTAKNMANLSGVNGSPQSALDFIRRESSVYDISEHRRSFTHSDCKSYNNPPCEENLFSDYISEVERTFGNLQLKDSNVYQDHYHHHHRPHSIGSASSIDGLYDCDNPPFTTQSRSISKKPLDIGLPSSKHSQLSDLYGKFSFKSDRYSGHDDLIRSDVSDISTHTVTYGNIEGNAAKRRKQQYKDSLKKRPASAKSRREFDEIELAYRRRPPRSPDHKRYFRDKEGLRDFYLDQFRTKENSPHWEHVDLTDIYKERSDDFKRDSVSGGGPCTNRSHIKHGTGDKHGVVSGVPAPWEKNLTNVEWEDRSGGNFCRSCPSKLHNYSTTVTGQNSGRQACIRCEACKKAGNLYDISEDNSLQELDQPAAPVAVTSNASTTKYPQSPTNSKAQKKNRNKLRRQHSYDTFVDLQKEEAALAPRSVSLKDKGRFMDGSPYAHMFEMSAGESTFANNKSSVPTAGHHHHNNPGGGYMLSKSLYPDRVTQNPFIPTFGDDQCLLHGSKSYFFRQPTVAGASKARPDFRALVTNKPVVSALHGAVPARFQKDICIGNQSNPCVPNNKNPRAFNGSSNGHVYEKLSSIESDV
The experiment in a line: In vitro NMDA NR1/NR2B cell assay (FLIPR, intracellular calcium induced by glycine/glutamate). The class given is cell-based. Conditions: HEK293 cells expressing NMDA NR1/NR2B; 20 μM glycine, 1 μM glutamate; read-out: IC50 (in vitro NR2B affinity, FLIPR assay). Summed up: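 HEK293 cells with tetracycline-induced NR1/NR2B, induced 48 h, loaded with Fluo-8 for 60 min at room temperature, stimulated with 20 μM glycine plus 1 μM glutamate (final) in HEPES buffer pH 7.4. Compound added 2 min later at 0.9% DMSO; fluorescence at ~5 min normalised to DMSO and 1 μM reference NAM controls, IC50 by 4-parameter fit.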
For orientation: Calcium flux is commonly read through the fluorescence of an indicator in the cells.
For `CNC(=O)[C@@H]1CN(Cc2ccc(Oc3ccccc3Cl)nc2)CCO1` [Example 17], the IC50 was 188 nM. The figure for `CNC(=O)[C@@H]1CN(Cc2ccc(Oc3ccccc3F)nc2)CCO1` [Example 19] is 199 nM. `CNC(=O)[C@@H]1CN(Cc2ccc(Oc3ccc(C)cc3)nc2)CCO1` [Example 29]: the IC50 stood at 194 nM. Regarding `CNC(=O)[C@@H]1CN(Cc2ccc(Oc3ccc(F)cc3)cn2)CCO1` [Example 30], the IC50 is 454 nM.
